# Experimental data taken from patent US20060057071A1, “Paramagnetic complexes with pendant crown compounds showing improved targeting-specificity as MRI contrast agents” (priority 2004, published 2006).
# “And” between values parts separate entries of the source, which are not always exact repeats. Equal values may be shown once. Read-outs that look alike come from different tables or passages of the source.
# Columns and labels:
# [1] = 1H NMRD profiles (water proton relaxivity); format: physicochemical; conditions: 20 MHz; for proton relaxivity r1 (r1p): 25° C., pH 6.9
# liver parenchyma = assay: In vivo MRI, hepatic intensity enhancement; set-up: species or system rat; conditions: for maximal hepatic IE: rat
# Protocol: (§1) To study the MRI contrast and biodistribution behavior of gadolinium complexes […] pendant crown ethers, experiments were performed using male Sprague-Dawley (SD) rats that weighted 150-180 g, and were housed at the Wuhan Institute of Physical and Mathematics of the Chinese Academy of Sciences (Wuhan, Hubei Province, China). All procedures conformed to the institutional guidelines for animal welfare. The rat was injected via the femoral vein with 1 mL saline solution of GdL1 in concentrations of 0.1, 0.033, and 0.02 mM/kg, which are the standard dosage, one third and one fifth of the standard dosage used in clinic currently. MR imaging was performed on a 4.7 T Bruker BIO-SPEC-47/30 MRI scanner with a custom spiral surface coil. The animal was scanned in the prone position in the MRI experiment. […] The total duration of the dynamic scanning lasted up to 400 min after the administration, with an image every 4 min. A water tube was placed in the field of view as a phantom reference. The intensity enhancement (IE) of the region of interest (RI) at time point t is expressed by IE=100% (RI(t)-RI(0))/RI(0) where RI(t) corresponds to the normalized signal intensity as measured at time point, t and RI(0) is the normalized signal intensity precontrast.
# kidney cortex = assay: In vivo MRI, renal intensity enhancement; set-up: species or system rat; conditions: for maximal renal intensity enhancement (IE): 0.1 mmol/kg (standard dosage), rat, first few minutes after administration; for time after administration at which almost all renal IE was diminished: kidney cortex
# Protocol: as §1
# [2] = Variable-temperature 17O NMR transverse relaxation rate; format: physicochemical; conditions: for TM / water exchange rate kex^298: 25° C.; for TM: pH 6.9, derived from VT 17O NMR spectroscopy; for exchange lifetime TM of inner-sphere coordinated water: 298 K (25° C.), 2.12 T; for q, inner-sphere coordinated water molecules: from NMRD profile / 17O NMR data, near neutral pH
# Excerpt: (§2) Measuring the relaxation rates of an abundant nuclear species as a function of the magnetic field over a wide range is called relaxometry. A relaxometry profile is a plot of the nuclear magnetic relaxation rate, usually 1/T1, as a function of the Larmor frequency or the magnetic field. This profile is also called a Nuclear Magnetic Resonance Dispersion (NMRD) profile. Compared with the NMRD profile, the prominent advantage of the ^17O NMR technique is that it allows the accurate determination of the water exchange rate 1/TM. This is a consequence of the oxygen nucleus being closer to the paramagnetic centre when bound in the inner-sphere, wherein the outer-sphere contributions to the relaxation rates are negligibly small. With the help of NMRD profiles, ^17O NMR measurements, and the Soloman-Bloemnergen-Morgan theory, several important parameters, such as TM, TR, TV, Δ^2 and rH, can be measured.
# The variable-temperature ^17O NMR measurements were recorded on a JEOL EX-90 (2.1 T) spectrometer that was equipped with a 5 mm probe, by using a D2O external lock. The experimental settings were: spectral width of 10000 Hz, pulse width of 7 μs, acquisition time of 10 ms, 1000 scans, and no sample spinning. Solutions containing 2.6% of ^17O isotope were used. The observed transverse relaxation rates (R2obs^O) were calculated from the signal width at half height.
# [3] = 1H NMRD profiles (water proton relaxivity); format: physicochemical; conditions: for D / TR / TV / a / q / r / Δ^2: 25° C., pH 6.9, fits of NMRD profile and 17O NMR
# Excerpt: as §2
# Water proton nuclear magnetic resonance dispersion NMRD profile is used to record the longitudinal water proton relaxation rates as a function of magnetic fields. The method is, in principle, sensitive to all of the parameters that influence relaxivity. The ^1H NMRD profiles were measured over a continuum of magnetic field strength from 0.00024 to 0.24 T (corresponding to 0.01-10 MHz proton Larmor frequency, 1 T≈41.7 MHz) on a Spinmaster FFC (Stelar, Mede (PV)), which is a fast field-cycling NMR relaxometer installed at the LIMA Laboratory (Bioindustry Park, Ivrea (TO), Italy). The relaxometer worked under complete control with an absolute uncertainty in 1/T1 of ±2%. The NMRD profiles were measured using 1-2 mM solutions of the complexes.
# [4] = cited from earlier work; for r1p / relaxivity: 20 MHz; for r1p / bound water molecular resident lifetime TM: 298 K, typical values
# MIHA cells = assay: AO/EB staining, laser scanning confocal microscopy; format: cell-based; conditions: 10 μM, 1 h, 2 h, 8 h, 24 h incubation, 37° C.
# Protocol: MIHA cells in the absence (control) and presence of Gd-DOTA (10 μM), Gd-DO3A (10 μM), and GdL1 (10 μM) incubated at 37° C. and 5% CO2, 95% air in a humidified incubator for 1 h, 2 h, 8 h, and 24 h, respectively.
# Based on cell morphology and cell membrane integrity, normal, necrotic, and apoptotic cells can be distinguished using laser confocal microscopy. FIG. 22 gives the cell morphology in the absence and presence of Gd-DOTA (10 μM), Gd-DO3A (10 μM), and GdL1 (10 μM) at various time intervals after the incubation. In the absence or presence of the Gd^3+ complexes, the nuclei of the living cells were stained as bright blue spots in the nucleus.
# [5] = 298 K; cited from earlier work
Structure (SMILES),TM [2] [ns],exchange lifetime TM of inner-sphere coordinated water [2] [ns],D [3] [cm^2s^−1],TR [3] [ps],TV [3] [ps],a [3] [Å],q [3],r [3] [Å],Δ^2 [3] [s⁻¹],proton relaxivity r1 (r1p) [1] [mM⁻¹ s⁻¹],water exchange rate kex^298 [2] [s⁻¹],maximal hepatic IE (liver parenchyma; 0.1 mmol/kg (standard dosage)) [%],maximal renal intensity enhancement (IE) (kidney cortex),other results
"O=C([O-])CN1CCNCCN(CC(=O)[O-])CCN(CC(=O)[O-])CC1.[Gd+3] [Gd-DO3A, reference compound]",160,160,2.24E-5,66,14,3.9,2,3.15,4.6e+19,5.72,6.3e+06,–,140%,cell morphology (apoptotic or necrotic cells) (MIHA cells): no obvious apoptotic or necrotic cells were found; time after administration at which almost all renal IE was diminished (kidney cortex; 0.1 mmol/kg): 120 min; thermodynamic stability log K [5]: 22.0
CC(O)CN1CCN(CC(=O)[O-])CCN(CC(=O)[O-])CCN(CC(=O)[O-])CC1.[Gd+3] (stereo not shown) [Gd-[HP-DO3A]],–,–,–,–,–,–,–,–,–,–,–,–,–,relaxivity ([4]; 40° C.): 3.65 mM⁻¹ s⁻¹
O=C([O-])CN1CCN(CC(=O)[O-])CCN(C(CO)C(O)CO)CCN(CC(=O)[O-])CC1.[Gd+3] (stereo not shown) [Gd[DO3A-butrol]],–,–,–,–,–,–,–,–,–,–,–,–,–,relaxivity ([4]; 37° C.): 5.6 mM⁻¹ s⁻¹
"O=C([O-])CN1CCN(CC(=O)[O-])CCN(CC(=O)O)CCN(CC(=O)[O-])CC1.[Gd+3] [Gd-DOTA, reference compound]",300,245,2.24E-5,73,7.7,4.0,1,3.1,1.3e+19,4.74,4.1e+06,70,110% and 123%,cell morphology (apoptotic or necrotic cells) (MIHA cells): no obvious apoptotic or necrotic cells were found; hepatic IE (liver parenchyma; 0.02 mmol/kg): no remarkable hepatic IE was detected; time after administration of maximal hepatic IE (liver parenchyma; 0.1 mmol/kg): 30 to 40 min; time after administration of maximal hepatic IE (liver parenchyma; 0.033 (0.03) mmol/kg): 30 to 40 min; maximal hepatic IE (liver parenchyma; 0.033 (0.03) mmol/kg): 30%; time after which hepatic IE faded away (liver parenchyma; 0.1 and 0.033 mmol/kg): 100 min; time after administration at which almost all renal IE was diminished (kidney cortex; 0.1 mmol/kg): 70 min; thermodynamic stability log K [5]: 24.6; r1p [4]: 4.74 mM⁻¹ s⁻¹; relaxivity ([4]; 37° C.): 3.4 mM⁻¹ s⁻¹; bound water molecular resident lifetime TM [4]: about 244 ns

# The next lines start with results.
TM [2] [ns],exchange lifetime TM of inner-sphere coordinated water [2] [ns],D [3] [cm^2s^−1],TR [3] [ps],TV [3] [ps],a [3] [Å],q [3],r [3] [Å],Δ^2 [3] [s⁻¹],proton relaxivity r1 (r1p) [1] [mM⁻¹ s⁻¹],water exchange rate kex^298 [2] [s⁻¹],Structure (SMILES),maximal hepatic IE (liver parenchyma; 0.1 mmol/kg (standard dosage)) [%],maximal renal intensity enhancement (IE) (kidney cortex),other results
246,246,2.24E-5,210,21,4.2,1,3.03,3e+19,–,–,"O=C([O-])CN1CCN(CC(=O)[O-])CCN(CC(=O)N2CCOCCOCCN(Cc3ccc4ccccc4n3)CCOCCOCC2)CCN(CC(=O)[O-])CC1.[Gd+3] [GdL3, Gd^3+ complex of L3]",59,58%,"relaxivity ([1]; pH 7.4): 4.95 mM⁻¹ s⁻¹; hepatic IE level maintained for more than 4 h (liver parenchyma; 0.1 mmol/kg): about 50%; time for which strong/high hepatic IE was maintained (liver parenchyma; 0.1 mmol/kg): more than 4 h; q, inner-sphere coordinated water molecules [2]: 1; reorientation lifetime TR [3]: 210 ps"
250,–,2.24E-5,73,20,4.0,1,3.1,4.2e+19,–,–,"O=C([O-])CN(CCN(CC(=O)[O-])CC(=O)O)CCN(CC(=O)[O-])CC(=O)O.[Gd+3] [Gd-DTPA, reference compound]",–,–,r1p [4]: 4.69 mM⁻¹ s⁻¹; bound water molecular resident lifetime TM [4]: ~303 ns
116,116,2.24E-5,140,13,4.0,2,2.97,9e+19,9.36,8.62e+06,"O=C([O-])CN1CCN(CCOCC2COCCOCCOCCOCCO2)CCN(CC(=O)[O-])CCN(CC(=O)[O-])CC1.[Gd+3] (stereo not shown) [GdL2, Gd^3+ complex of L2]",100,135%,"outer-sphere contribution to the overall observed proton relaxivity ([1]; pH 10.0): about 50%; outer-sphere relaxivity ([1]; pH 10.0): 2.1 mM⁻¹ s⁻¹; overall relaxivity ([1]; pH 10.0): 4.21 mM⁻¹ s⁻¹; hepatic IE level maintained for more than 4 h (liver parenchyma; 0.1 mmol/kg): > 60%; time after administration of maximal hepatic IE (liver parenchyma; 0.1 mmol/kg): 60 min; time for which strong/high hepatic IE was maintained (liver parenchyma; 0.1 mmol/kg): more than 4 h; renal enhancement left in less than an hour (kidney cortex; 0.1 mmol/kg): 30%; q, inner-sphere coordinated water molecules [2]: about 2"
